Experimental data reported in patent US20070128217A1 (priority 2003, published 2007).

Columns and labels:
[1] = system: antibodies in sera from SARS patients (sera 1a, 1b, 2, 6, 37, 62, London, SARS-yellow, SARS-green); format: binding, human; set-up: Binding of serum 6 to linear peptides of protein X1 of SARS-CoV Urbani / Binding of serum 37 to linear peptides of protein X1 of SARS-CoV Urbani / Binding of serum 6 to looped/cyclic peptide (PEPSCAN-ELISA) / Binding of serum 37 to looped/cyclic peptide (PEPSCAN-ELISA) / Binding of serum 37 to looped/cyclic peptides of protein X1 of SARS-CoV Urbani / Binding of serum 6 to linear peptides of protein X2 / Binding of serum 37 to linear peptides of protein X2 / Binding of serum 37 to looped/cyclic peptides of protein X2 of SARS-CoV Urbani / Binding of serum 6 to linear peptides of protein M of SARS-CoV Urbani / Binding of serum 37 to linear peptides of protein M of SARS-CoV Urbani / Binding of serum 6 to looped/cyclic peptides of protein M of SARS-CoV Urbani / Binding of serum 37 to looped/cyclic peptides of protein M of SARS-CoV Urbani / Binding of serum 6 to linear peptides of protein X3 of SARS-CoV Urbani / Binding of serum 37 to linear peptides of protein X3 of SARS-CoV Urbani / Binding of serum 37 to looped/cyclic peptides of protein X3 of SARS-CoV Urbani / Binding of serum 6 to linear peptides of protein X4 of SARS-CoV Urbani / Binding of serum 37 to linear peptides of protein X4 of SARS-CoV Urbani / Binding of serum 37 to looped/cyclic peptides of protein X4 of SARS-CoV Urbani / Binding of serum 6 to linear peptides of protein X5 of SARS-CoV Urbani / Binding of serum 37 to linear peptides of protein X5 of SARS-CoV Urbani / Binding of serum 37 to looped/cyclic peptides of protein X5 of SARS-CoV Urbani / Binding of serum 6 to linear peptides of protein N of SARS-CoV Urbani / Binding of serum 37 to linear peptides of protein N of SARS-CoV Urbani / Binding of serum 6 to linear peptide (PEPSCAN-ELISA) / Binding of serum 1a to looped/cyclic peptides of protein N of SARS-CoV Urbani / Binding of serum 1b to looped/cyclic peptides of protein N of SARS-CoV Urbani / Binding of serum 2 to looped/cyclic peptides of protein N of SARS-CoV Urbani / Binding of serum 6 to looped/cyclic peptides of protein N of SARS-CoV Urbani / Binding of serum 37 to looped/cyclic peptides of protein N of SARS-CoV Urbani / Binding of serum 62 to looped/cyclic peptides of protein N of SARS-CoV Urbani / Binding of serum London to looped/cyclic peptides of protein N of SARS-CoV Urbani / Binding of serum SARS-green to looped/cyclic peptides of protein N of SARS-CoV Urbani: unit not given here
[2] = system: control sera (pooled serum of ten healthy LUMC hospital workers; commercial negative donor pooled serum from the Dutch bloodbank); format: binding, human; set-up: Binding of Control serum LUMC to linear peptides / Binding of Control serum Blood-bank to linear peptides / Binding of Control serum LUMC to looped peptides / Binding of Control Serum Blood-Bank to Looped peptides / Binding of Control serum LUMC to linear peptides of the protein M of SARS-CoV Urbani / Binding of Control serum Blood-bank to linear peptides of the protein M of SARS-CoV Urbani / Binding of Control serum LUMC to looped peptides of the protein M of SARS-CoV Urbani / Binding of Control Serum Blood-Bank to Looped peptides of the protein M of SARS-CoV Urbani: unit not given here
[3] = system: rabbit serum obtained by immunizing a rabbit with the SARS-CoV strain Frankfurt 1; format: binding; set-up: Binding of a rabbit serum to linear peptides / Binding of a rabbit serum to looped peptides / Rabbit serum linear peptides / Rabbit serum looped peptides / Binding of a rabbit serum to linear peptides of protein N of SARS-CoV Urbani (Rabbit serum linear peptides) / Binding of a rabbit serum to looped/cyclic peptides of protein N of SARS-CoV Urbani (Rabbit serum looped peptides): unit not given here

TCTPNVTINCQDPAG
0.0: Binding of serum 1b to looped/cyclic peptides of protein X5 of SARS-CoV Urbani [1] | Binding of serum SARS-yellow to looped/cyclic peptides of protein X5 of SARS-CoV Urbani [1] | Rabbit serum looped peptides [3]
0.8: Binding of serum 1a to linear peptides of protein X5 of SARS-CoV Urbani [1] | Binding of serum 6 to linear peptides of protein X5 of SARS-CoV Urbani [1] | Binding of serum 62 to linear peptides of protein X5 of SARS-CoV Urbani [1] | Binding of serum London to linear peptides of protein X5 of SARS-CoV Urbani [1] | Binding of serum SARS-green to linear peptides of protein X5 of SARS-CoV Urbani [1]
0.7: Binding of serum 37 to linear peptides of protein X5 of SARS-CoV Urbani [1] | Binding of Control serum Blood-bank to linear peptides [2]
0.2: Binding of serum 1a to looped/cyclic peptides of protein X5 of SARS-CoV Urbani [1] | Binding of serum SARS-green to looped/cyclic peptides of protein X5 of SARS-CoV Urbani [1] | Binding of serum SARS-yellow to linear peptides of protein X5 of SARS-CoV Urbani [1] | Binding of Control serum LUMC to looped peptides [2]
0.4: Binding of Control Serum Blood-Bank to Looped peptides [2]
0.1: Binding of serum 2 to looped/cyclic peptides of protein X5 of SARS-CoV Urbani [1] | Binding of serum 6 to looped/cyclic peptides of protein X5 of SARS-CoV Urbani [1] | Binding of serum 37 to looped/cyclic peptides of protein X5 of SARS-CoV Urbani [1] | Binding of serum 62 to looped/cyclic peptides of protein X5 of SARS-CoV Urbani [1] | Binding of serum London to looped/cyclic peptides of protein X5 of SARS-CoV Urbani [1]
0.5: Binding of Control serum LUMC to linear peptides [2] | Rabbit serum linear peptides [3]
0.6: Binding of serum 1b to linear peptides of protein X5 of SARS-CoV Urbani [1] | Binding of serum 2 to linear peptides of protein X5 of SARS-CoV Urbani [1]

TCTSTHFAFACADGT
0.8: Binding of serum 1a to linear peptides of protein X4 of SARS-CoV Urbani [1] | Binding of serum 1a to looped/cyclic peptides of protein X4 of SARS-CoV Urbani [1] | Binding of serum 2 to looped/cyclic peptides of protein X4 of SARS-CoV Urbani [1] | Binding of serum 62 to looped/cyclic peptides of protein X4 of SARS-CoV Urbani [1] | Binding of serum London to linear peptides of protein X4 of SARS-CoV Urbani [1] | Binding of serum SARS-yellow to looped/cyclic peptides of protein X4 of SARS-CoV Urbani [1] | Binding of Control serum Blood-bank to linear peptides [2] | Binding of Control serum LUMC to looped peptides [2]
0.6: Binding of serum 1b to looped/cyclic peptides of protein X4 of SARS-CoV Urbani [1] | Binding of serum 6 to looped/cyclic peptides of protein X4 of SARS-CoV Urbani [1] | Binding of serum SARS-green to linear peptides of protein X4 of SARS-CoV Urbani [1] | Binding of serum SARS-yellow to linear peptides of protein X4 of SARS-CoV Urbani [1]
0.5: Binding of serum 2 to linear peptides of protein X4 of SARS-CoV Urbani [1] | Binding of serum SARS-green to looped/cyclic peptides of protein X4 of SARS-CoV Urbani [1] | Rabbit serum linear peptides [3]
0.9: Binding of serum 62 to linear peptides of protein X4 of SARS-CoV Urbani [1] | Binding of Control serum LUMC to linear peptides [2]
0.3: Binding of serum London to looped/cyclic peptides of protein X4 of SARS-CoV Urbani [1]
0.7: Binding of serum 1b to linear peptides of protein X4 of SARS-CoV Urbani [1] | Binding of serum 6 to linear peptides of protein X4 of SARS-CoV Urbani [1] | Binding of serum 37 to linear peptides of protein X4 of SARS-CoV Urbani [1] | Binding of serum 37 to looped/cyclic peptides of protein X4 of SARS-CoV Urbani [1] | Binding of Control Serum Blood-Bank to Looped peptides [2] | Rabbit serum looped peptides [3]

TDSGFAAYNRYRIGN
0.6: Binding of serum 1a to linear peptides of protein M of SARS-CoV Urbani [1] | Binding of serum 2 to looped/cyclic peptides of protein M of SARS-CoV Urbani [1] | Binding of serum 62 to linear peptides of protein M of SARS-CoV Urbani [1] | Binding of Control Serum Blood-Bank to Looped peptides of the protein M of SARS-CoV Urbani [2]
0.3: Binding of serum London to linear peptides of protein M of SARS-CoV Urbani [1] | Binding of serum SARS-green to linear peptides of protein M of SARS-CoV Urbani [1] | Binding of Control serum LUMC to linear peptides of the protein M of SARS-CoV Urbani [2]
0.2: Binding of serum London to looped/cyclic peptides of protein M of SARS-CoV Urbani [1]
0.4: Binding of serum 1b to linear peptides of protein M of SARS-CoV Urbani [1] | Binding of serum 6 to linear peptides of protein M of SARS-CoV Urbani [1] | Binding of serum 37 to linear peptides of protein M of SARS-CoV Urbani [1]
0.0: Binding of serum SARS-yellow to linear peptides of protein M of SARS-CoV Urbani [1] | Rabbit serum linear peptides [3]
0.7: Binding of serum 1a to looped/cyclic peptides of protein M of SARS-CoV Urbani [1] | Binding of serum 37 to looped/cyclic peptides of protein M of SARS-CoV Urbani [1] | Binding of serum 62 to looped/cyclic peptides of protein M of SARS-CoV Urbani [1] | Binding of Control serum Blood-bank to linear peptides of the protein M of SARS-CoV Urbani [2] | Binding of Control serum LUMC to looped peptides of the protein M of SARS-CoV Urbani [2]
0.8: Binding of serum SARS-yellow to looped/cyclic peptides of protein M of SARS-CoV Urbani [1]
0.5: Binding of serum 1b to looped/cyclic peptides of protein M of SARS-CoV Urbani [1] | Binding of serum 2 to linear peptides of protein M of SARS-CoV Urbani [1] | Rabbit serum looped peptides [3]
0.1: Binding of serum SARS-green to looped/cyclic peptides of protein M of SARS-CoV Urbani [1]
0.9: Binding of serum 6 to looped/cyclic peptides of protein M of SARS-CoV Urbani [1]

TDTIVVTEGDGISTP
0.1: Binding of serum London to looped/cyclic peptides of protein X1 of SARS-CoV Urbani [1] | Binding of a rabbit serum to linear peptides [3]
0.6: Binding of serum 1a to linear peptides of protein X1 of SARS-CoV Urbani [1]
0.4: Binding of serum 1a to looped/cyclic peptides of protein X1 of SARS-CoV Urbani [1] | Binding of serum 2 to linear peptides of protein X1 of SARS-CoV Urbani [1] | Binding of serum 62 to linear peptides of protein X1 of SARS-CoV Urbani [1] | Binding of serum SARS-yellow to looped/cyclic peptides of protein X1 of SARS-CoV Urbani [1] | Binding of Control Serum Blood-Bank to Looped peptides [2] | Binding of Control serum LUMC to looped peptides [2]
0.2: Binding of serum 2 to looped/cyclic peptides of protein X1 of SARS-CoV Urbani [1] | Binding of serum 6 to looped/cyclic peptides of protein X1 of SARS-CoV Urbani [1] | Binding of serum London to linear peptides of protein X1 of SARS-CoV Urbani [1] | Binding of serum SARS-green to looped/cyclic peptides of protein X1 of SARS-CoV Urbani [1] | Binding of serum SARS-yellow to linear peptides of protein X1 of SARS-CoV Urbani [1]
0.5: Binding of serum 1b to linear peptides of protein X1 of SARS-CoV Urbani [1] | Binding of serum 6 to linear peptides of protein X1 of SARS-CoV Urbani [1] | Binding of serum 37 to linear peptides of protein X1 of SARS-CoV Urbani [1] | Binding of Control serum Blood-bank to linear peptides [2] | Binding of Control serum LUMC to linear peptides [2]
0.3: Binding of serum 1b to looped/cyclic peptides of protein X1 of SARS-CoV Urbani [1] | Binding of serum 37 to looped/cyclic peptides of protein X1 of SARS-CoV Urbani [1] | Binding of serum 62 to looped/cyclic peptides of protein X1 of SARS-CoV Urbani [1] | Binding of serum SARS-green to linear peptides of protein X1 of SARS-CoV Urbani [1] | Binding of a rabbit serum to looped peptides [3]

TEGDGISTPKLKEDY
0.3: Binding of serum 1b to linear peptides of protein X1 of SARS-CoV Urbani [1] | Binding of serum 62 to linear peptides of protein X1 of SARS-CoV Urbani [1] | Binding of serum SARS-green to looped/cyclic peptides of protein X1 of SARS-CoV Urbani [1] | Binding of serum SARS-yellow to looped/cyclic peptides of protein X1 of SARS-CoV Urbani [1]
0.0: Binding of serum SARS-yellow to linear peptides of protein X1 of SARS-CoV Urbani [1]
0.5: Binding of serum 1a to linear peptides of protein X1 of SARS-CoV Urbani [1] | Binding of serum 1a to looped/cyclic peptides of protein X1 of SARS-CoV Urbani [1] | Binding of serum 2 to looped/cyclic peptides of protein X1 of SARS-CoV Urbani [1] | Binding of Control Serum Blood-Bank to Looped peptides [2] | Binding of Control serum LUMC to looped peptides [2] | Binding of a rabbit serum to looped peptides [3]
0.1: Binding of serum SARS-green to linear peptides of protein X1 of SARS-CoV Urbani [1] | Binding of a rabbit serum to linear peptides [3]
0.2: Binding of serum 6 to linear peptides of protein X1 of SARS-CoV Urbani [1] | Binding of serum London to linear peptides of protein X1 of SARS-CoV Urbani [1] | Binding of serum London to looped/cyclic peptides of protein X1 of SARS-CoV Urbani [1] | Binding of Control serum Blood-bank to linear peptides [2] | Binding of Control serum LUMC to linear peptides [2]
0.4: Binding of serum 1b to looped/cyclic peptides of protein X1 of SARS-CoV Urbani [1] | Binding of serum 2 to linear peptides of protein X1 of SARS-CoV Urbani [1] | Binding of serum 6 to looped/cyclic peptides of protein X1 of SARS-CoV Urbani [1] | Binding of serum 37 to linear peptides of protein X1 of SARS-CoV Urbani [1] | Binding of serum 37 to looped/cyclic peptides of protein X1 of SARS-CoV Urbani [1] | Binding of serum 62 to looped/cyclic peptides of protein X1 of SARS-CoV Urbani [1]
